{
  "source": "PubChem BioAssay AID1963440",
  "about": "(Molecular Pharmacology Branch, DTP, NCI, 2024)",
  "test_system": "NCI-H1417 complex spheroids, growth % test/control",
  "assay": "Anticancer human tumor NCI-H1417 cell line growth inhibition [Asc];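 further: spheroids exposed to compounds for 7 days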;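 on viability, T/C: 100% = DMSO vehicle control wells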",
  "settings": "for pIC50: curve of first compound; for viability, T/C: stronger effect = lower value",
  "how_it_was_run": "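Stromal components (HUVEC and hMSC) are co-assembled with the cancer cells into multicellular spheroids. Drugs are then added singly or paired, at concentrations falling by half-log increments from a clinically achievable maximum, capped at 10 microM without known Cmax.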",
  "note": "pIC50: −log10 of the molar value.",
  "data": [
    {"smiles": "O=C(c1ccc(F)c(F)c1Nc1ccc(I)cc1F)N1CC(O)([C@@H]2CCCCN2)C1", "note": "+ CCN1C(C(=O)NC23CCC(C(=O)O)(CC2)CC3)C(c2cccc(Cl)c2F)C2(C(=O)Nc3cc(Cl)ccc32)C12CCCCC2", "values": [
      {"measurement": "pIC50", "setting": "second compound 0.03 µM", "result": "< 6.00"},
      {"measurement": "pIC50", "setting": "second compound 0.0949 µM", "result": "< 6.00"},
      {"measurement": "pIC50", "setting": "second compound 0.3 µM", "result": "< 6.00"},
      {"measurement": "pIC50", "setting": "second compound 0.949 µM", "result": "< 6.00"},
      {"measurement": "pIC50", "setting": "second compound 3 µM", "result": "< 6.00"},
      {"measurement": "viability, T/C", "setting": "second compound 0.03 µM, first compound 0.00316 µM", "result": 85.9, "unit": "%"},
      {"measurement": "viability, T/C", "setting": "second compound 0.03 µM, first compound 0.01 µM", "result": 91.6, "unit": "%"},
      {"measurement": "viability, T/C", "setting": "second compound 0.03 µM, first compound 0.0316 µM", "result": 88.9, "unit": "%"},
      {"measurement": "viability, T/C", "setting": "second compound 0.03 µM, first compound 0.1 µM", "result": 85.9, "unit": "%"},
      {"measurement": "viability, T/C", "setting": "second compound 0.03 µM, first compound 0.316 µM", "result": 88.2, "unit": "%"},
      {"measurement": "viability, T/C", "setting": "second compound 0.03 µM, first compound 1 µM", "result": 81.2, "unit": "%"},
      {"measurement": "viability, T/C", "setting": "second compound 0.0949 µM, first compound 0.00316 µM", "result": 101, "unit": "%"},
      {"measurement": "viability, T/C", "setting": "second compound 0.0949 µM, first compound 0.01 µM", "result": 89, "unit": "%"},
      {"measurement": "viability, T/C", "setting": "second compound 0.0949 µM, first compound 0.0316 µM", "result": 97.5, "unit": "%"},
      {"measurement": "viability, T/C", "setting": "second compound 0.0949 µM, first compound 0.1 µM", "result": 84.1, "unit": "%"},
      {"measurement": "viability, T/C", "setting": "second compound 0.0949 µM, first compound 0.316 µM", "result": 88.8, "unit": "%"},
      {"measurement": "viability, T/C", "setting": "second compound 0.0949 µM, first compound 1 µM", "result": 88.8, "unit": "%"},
      {"measurement": "viability, T/C", "setting": "second compound 0.3 µM, first compound 0.00316 µM", "result": 94.6, "unit": "%"},
      {"measurement": "viability, T/C", "setting": "second compound 0.3 µM, first compound 0.01 µM", "result": 76.9, "unit": "%"},
      {"measurement": "viability, T/C", "setting": "second compound 0.3 µM, first compound 0.0316 µM", "result": 91.6, "unit": "%"},
      {"measurement": "viability, T/C", "setting": "second compound 0.3 µM, first compound 0.1 µM", "result": 89.6, "unit": "%"},
      {"measurement": "viability, T/C", "setting": "second compound 0.3 µM, first compound 0.316 µM", "result": 85.4, "unit": "%"},
      {"measurement": "viability, T/C", "setting": "second compound 0.3 µM, first compound 1 µM", "result": 89.5, "unit": "%"},
      {"measurement": "viability, T/C", "setting": "second compound 0.949 µM, first compound 0.00316 µM", "result": 79.4, "unit": "%"},
      {"measurement": "viability, T/C", "setting": "second compound 0.949 µM, first compound 0.01 µM", "result": 87.8, "unit": "%"},
      {"measurement": "viability, T/C", "setting": "second compound 0.949 µM, first compound 0.0316 µM", "result": 85, "unit": "%"},
      {"measurement": "viability, T/C", "setting": "second compound 0.949 µM, first compound 0.1 µM", "result": 87.5, "unit": "%"},
      {"measurement": "viability, T/C", "setting": "second compound 0.949 µM, first compound 0.316 µM", "result": 78.8, "unit": "%"},
      {"measurement": "viability, T/C", "setting": "second compound 0.949 µM, first compound 1 µM", "result": 87.8, "unit": "%"},
      {"measurement": "viability, T/C", "setting": "second compound 3 µM, first compound 0.00316 µM", "result": 86.7, "unit": "%"},
      {"measurement": "viability, T/C", "setting": "second compound 3 µM, first compound 0.01 µM", "result": 87.5, "unit": "%"},
      {"measurement": "viability, T/C", "setting": "second compound 3 µM, first compound 0.0316 µM", "result": 78.5, "unit": "%"},
      {"measurement": "viability, T/C", "setting": "second compound 3 µM, first compound 0.1 µM", "result": 89, "unit": "%"},
      {"measurement": "viability, T/C", "setting": "second compound 3 µM, first compound 0.316 µM", "result": 90.7, "unit": "%"},
      {"measurement": "viability, T/C", "setting": "second compound 3 µM, first compound 1 µM", "result": 77, "unit": "%"}
    ]},
    {"smiles": "C#Cc1c(F)ccc2cc(O)cc(-c3ncc4c(N5CC6CCC(C5)N6)nc(OCC56CCCN5CC(F)C6)nc4c3F)c12", "note": "(stereo not given) + Cc1c(S(C)(=O)=O)c(-c2cc(F)cc(N3CCN(c4ccc(NS(=O)(=O)c5ccc(NC(CCN6CCC(C(=O)OCCCP(=O)(O)O)CC6)CSc6ccccc6)c(S(=O)(=O)C(F)(F)F)c5)cc4)CC3)c2)c(-c2ccc(Cl)cc2)n1C(C)C", "values": [
      {"measurement": "pIC50", "setting": "second compound 0.1 µM", "result": 5.24},
      {"measurement": "pIC50", "setting": "second compound 0.316 µM", "result": "> 7.50"},
      {"measurement": "pIC50", "setting": "second compound 1 µM", "result": "> 7.50"},
      {"measurement": "pIC50", "setting": "second compound 3.16 µM", "result": "> 7.50"},
      {"measurement": "pIC50", "setting": "second compound 10 µM", "result": "> 7.50"},
      {"measurement": "viability, T/C", "setting": "second compound 0.1 µM, first compound 0.0316 µM", "result": 72, "unit": "%"},
      {"measurement": "viability, T/C", "setting": "second compound 0.1 µM, first compound 0.1 µM", "result": 83.9, "unit": "%"},
      {"measurement": "viability, T/C", "setting": "second compound 0.1 µM, first compound 0.316 µM", "result": 71.8, "unit": "%"},
      {"measurement": "viability, T/C", "setting": "second compound 0.1 µM, first compound 1 µM", "result": 75.8, "unit": "%"},
      {"measurement": "viability, T/C", "setting": "second compound 0.1 µM, first compound 3.16 µM", "result": 64.7, "unit": "%"},
      {"measurement": "viability, T/C", "setting": "second compound 0.1 µM, first compound 10 µM", "result": 35.7, "unit": "%"},
      {"measurement": "viability, T/C", "setting": "second compound 0.316 µM, first compound 0.0316 µM", "result": 42.6, "unit": "%"},
      {"measurement": "viability, T/C", "setting": "second compound 0.316 µM, first compound 0.1 µM", "result": 48, "unit": "%"},
      {"measurement": "viability, T/C", "setting": "second compound 0.316 µM, first compound 0.316 µM", "result": 34.8, "unit": "%"},
      {"measurement": "viability, T/C", "setting": "second compound 0.316 µM, first compound 1 µM", "result": 20.9, "unit": "%"},
      {"measurement": "viability, T/C", "setting": "second compound 0.316 µM, first compound 3.16 µM", "result": 12.9, "unit": "%"},
      {"measurement": "viability, T/C", "setting": "second compound 0.316 µM, first compound 10 µM", "result": 5.66, "unit": "%"},
      {"measurement": "viability, T/C", "setting": "second compound 1 µM, first compound 0.0316 µM", "result": 12, "unit": "%"},
      {"measurement": "viability, T/C", "setting": "second compound 1 µM, first compound 0.1 µM", "result": 10.5, "unit": "%"},
      {"measurement": "viability, T/C", "setting": "second compound 1 µM, first compound 0.316 µM", "result": 7.98, "unit": "%"},
      {"measurement": "viability, T/C", "setting": "second compound 1 µM, first compound 1 µM", "result": 5.31, "unit": "%"},
      {"measurement": "viability, T/C", "setting": "second compound 1 µM, first compound 3.16 µM", "result": 3.23, "unit": "%"},
      {"measurement": "viability, T/C", "setting": "second compound 1 µM, first compound 10 µM", "result": 4.53, "unit": "%"},
      {"measurement": "viability, T/C", "setting": "second compound 3.16 µM, first compound 0.0316 µM", "result": 3.15, "unit": "%"},
      {"measurement": "viability, T/C", "setting": "second compound 3.16 µM, first compound 0.1 µM", "result": 2.9, "unit": "%"},
      {"measurement": "viability, T/C", "setting": "second compound 3.16 µM, first compound 0.316 µM", "result": 3.53, "unit": "%"},
      {"measurement": "viability, T/C", "setting": "second compound 3.16 µM, first compound 1 µM", "result": 1.96, "unit": "%"},
      {"measurement": "viability, T/C", "setting": "second compound 3.16 µM, first compound 3.16 µM", "result": 1.85, "unit": "%"},
      {"measurement": "viability, T/C", "setting": "second compound 3.16 µM, first compound 10 µM", "result": 2.61, "unit": "%"},
      {"measurement": "viability, T/C", "setting": "second compound 10 µM, first compound 0.0316 µM", "result": 2.05, "unit": "%"},
      {"measurement": "viability, T/C", "setting": "second compound 10 µM, first compound 0.1 µM", "result": 2.06, "unit": "%"},
      {"measurement": "viability, T/C", "setting": "second compound 10 µM, first compound 0.316 µM", "result": 2.12, "unit": "%"},
      {"measurement": "viability, T/C", "setting": "second compound 10 µM, first compound 1 µM", "result": 1.68, "unit": "%"},
      {"measurement": "viability, T/C", "setting": "second compound 10 µM, first compound 3.16 µM", "result": 1.15, "unit": "%"},
      {"measurement": "viability, T/C", "setting": "second compound 10 µM, first compound 10 µM", "result": 2.22, "unit": "%"}
    ]}
  ]
}
